Assay results published in the NIST ThermoML archive (doi:10.1016/j.jct.2016.05.021).

Experiments:
[1] = refractive index (Na D-line) (dimensionless); xn = mol fraction of the nth substance listed; settings: 100 kPa, Liquid, Standard Abbe refractometry
[2] = xn = mol fraction of the nth substance listed; settings: 100 kPa, Liquid; for speed of sound: Frequency=3 MHz, Sing-around technique in a fixed-path interferometer; for mass density: Vibrating tube method

O=C1CCCN1 [2-pyrrolidinone] + CCCC[n+]1ccn(C)c1.O=S(=O)([N-]S(=O)(=O)C(F)(F)F)C(F)(F)F
Settings	mass density, [2] [kg/m3]	refractive index, [1]	speed of sound, [2] [m/s]
298.15 K, x2 = 0	1107.16	1.48591	1634.3
298.15 K, x2 = 0.1242	1204.09	1.46742	1491.9
298.15 K, x2 = 0.22	1253.58	1.45836	1431.2
298.15 K, x2 = 0.3191	1292.55	1.45142	1387.3
298.15 K, x2 = 0.4048	1320.08	1.44661	1357.6
298.15 K, x2 = 0.51	1348.24	1.44176	1327.5
298.15 K, x2 = 0.5945	1367.5	1.43844	1306.9
298.15 K, x2 = 0.7171	1391.3	1.4343	1280.2
298.15 K, x2 = 0.8383	1411.52	1.43075	1256.7
298.15 K, x2 = 0.9084	1421.66	1.42892	1244
303.15 K, x2 = 0	1103.07	1.48403	1617.7
303.15 K, x2 = 0.1242	1198.66	1.46576	1477.1
303.15 K, x2 = 0.22	1248.02	1.45679	1417
303.15 K, x2 = 0.3191	1287.03	1.44988	1373.5
303.15 K, x2 = 0.4048	1314.63	1.4451	1344.4
303.15 K, x2 = 0.51	1342.88	1.44028	1314.7
303.15 K, x2 = 0.5945	1362.18	1.43699	1294.3
303.15 K, x2 = 0.7171	1386.09	1.43286	1268.1
303.15 K, x2 = 0.8383	1406.4	1.42932	1244.9
303.15 K, x2 = 0.9084	1416.7	1.42747	1232.4
308.15 K, x2 = 0	1098.99	1.48218	1602.3
308.15 K, x2 = 0.1242	1193.23	1.46414	1462.9
308.15 K, x2 = 0.22	1242.46	1.45525	1403.4
308.15 K, x2 = 0.3191	1281.51	1.44835	1360.3
308.15 K, x2 = 0.4048	1309.18	1.44359	1331.3
308.15 K, x2 = 0.51	1337.52	1.43881	1302.1
308.15 K, x2 = 0.5945	1356.86	1.43554	1281.8
308.15 K, x2 = 0.7171	1380.88	1.43142	1255.9
308.15 K, x2 = 0.8383	1401.28	1.42789	1233.1
308.15 K, x2 = 0.9084	1411.74	1.426	1221
313.15 K, x2 = 0	1094.9	1.48033	1585.4
313.15 K, x2 = 0.1242	1187.79	1.46253	1448.4
313.15 K, x2 = 0.22	1236.9	1.4537	1389.4
313.15 K, x2 = 0.3191	1275.99	1.44683	1346.9
313.15 K, x2 = 0.4048	1303.73	1.44209	1318.2
313.15 K, x2 = 0.51	1332.16	1.43733	1289.4
313.15 K, x2 = 0.5945	1351.54	1.43407	1269.4
313.15 K, x2 = 0.7171	1375.67	1.42997	1244
313.15 K, x2 = 0.8383	1396.16	1.42645	1221.8
313.15 K, x2 = 0.9084	1406.78	1.42456	1209.8
318.15 K, x2 = 0	1090.82	1.47841	1569.4
318.15 K, x2 = 0.1242	1182.35	1.46087	1434.3
318.15 K, x2 = 0.22	1231.34	1.45212	1375.9
318.15 K, x2 = 0.3191	1270.47	1.44527	1333.8
318.15 K, x2 = 0.4048	1298.28	1.44057	1305.5
318.15 K, x2 = 0.51	1326.8	1.43584	1276.9
318.15 K, x2 = 0.5945	1346.22	1.43261	1257.2
318.15 K, x2 = 0.7171	1370.46	1.42853	1232.2
318.15 K, x2 = 0.8383	1391.04	1.42499	1210.4
318.15 K, x2 = 0.9084	1401.82	1.42312	1198.6
323.15 K, x2 = 0	1086.75	1.47649	1553.5
323.15 K, x2 = 0.1242	1176.91	1.4592	1420.2
323.15 K, x2 = 0.22	1225.78	1.45051	1362.6
323.15 K, x2 = 0.3191	1264.95	1.44369	1320.9
323.15 K, x2 = 0.4048	1292.83	1.43902	1292.9
323.15 K, x2 = 0.51	1321.44	1.43432	1264.6
323.15 K, x2 = 0.5945	1340.9	1.4311	1245.2
323.15 K, x2 = 0.7171	1365.25	1.42704	1220.5
323.15 K, x2 = 0.8383	1385.92	1.42352	1199.1
323.15 K, x2 = 0.9084	1396.86	1.42164	1187.6
